This experiment deals with T1, ADAR1 (Homo sapiens, UniProt P55265).
T1 construct: endogenous in cells; host or cells: p110 KO A549 dual cells
T1 sequence (P55265 1-1226): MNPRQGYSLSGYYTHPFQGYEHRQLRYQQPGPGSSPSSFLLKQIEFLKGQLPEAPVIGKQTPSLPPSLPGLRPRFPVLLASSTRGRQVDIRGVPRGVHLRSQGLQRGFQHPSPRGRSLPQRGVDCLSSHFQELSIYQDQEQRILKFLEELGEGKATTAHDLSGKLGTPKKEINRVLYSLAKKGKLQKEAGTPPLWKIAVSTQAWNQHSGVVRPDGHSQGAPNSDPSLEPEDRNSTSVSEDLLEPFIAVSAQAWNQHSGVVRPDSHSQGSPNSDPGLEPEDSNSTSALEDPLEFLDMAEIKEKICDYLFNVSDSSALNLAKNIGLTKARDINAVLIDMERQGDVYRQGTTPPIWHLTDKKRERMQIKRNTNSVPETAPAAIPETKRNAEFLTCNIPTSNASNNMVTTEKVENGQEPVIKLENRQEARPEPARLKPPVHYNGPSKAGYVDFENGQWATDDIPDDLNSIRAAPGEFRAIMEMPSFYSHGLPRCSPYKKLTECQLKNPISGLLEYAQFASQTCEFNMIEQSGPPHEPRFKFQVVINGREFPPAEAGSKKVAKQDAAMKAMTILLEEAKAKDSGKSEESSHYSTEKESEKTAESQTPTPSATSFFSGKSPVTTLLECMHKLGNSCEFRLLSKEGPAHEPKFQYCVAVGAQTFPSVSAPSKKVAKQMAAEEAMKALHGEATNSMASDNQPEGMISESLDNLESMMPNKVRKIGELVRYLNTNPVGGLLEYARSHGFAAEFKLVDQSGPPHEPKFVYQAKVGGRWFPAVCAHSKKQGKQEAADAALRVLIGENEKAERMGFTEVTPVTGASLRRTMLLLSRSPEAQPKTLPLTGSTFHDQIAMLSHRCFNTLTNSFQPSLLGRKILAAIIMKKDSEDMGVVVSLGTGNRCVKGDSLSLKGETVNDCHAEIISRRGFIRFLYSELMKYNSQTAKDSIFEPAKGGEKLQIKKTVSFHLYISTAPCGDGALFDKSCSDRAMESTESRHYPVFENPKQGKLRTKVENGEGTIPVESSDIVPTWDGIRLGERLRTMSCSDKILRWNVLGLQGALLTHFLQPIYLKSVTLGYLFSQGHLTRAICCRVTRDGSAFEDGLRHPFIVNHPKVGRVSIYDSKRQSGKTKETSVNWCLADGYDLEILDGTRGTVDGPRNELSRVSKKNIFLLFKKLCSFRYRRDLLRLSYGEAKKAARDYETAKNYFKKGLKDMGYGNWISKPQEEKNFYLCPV
The experiment is described as follows: ADAR1 Inhibition Assay (IFN fold-induction, Quanti-Luc luminescence, p110 KO A549 dual cells). Format: cell-based. Particulars: IFN fold-induction vs DMSO, 24 and 48 h. Summed up:
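p110 KO A549 dual cells (20,000/well) in supplemented DMEM, treated next day with compound at 1% final DMSO for 24 and 48 h at 37 °C, 5% CO2. Supernatant luminescence read with Quanti-Luc; IFN fold-induction = sample RLU/mean DMSO RLU, used for EC50.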

A word on the EC50: it is the midpoint of the concentration-response curve. High values mean weaker potency, low ones greater potency. Regarding `CCOC(=O)c1cc(-c2ccccc2)sc1NC(=O)COC(c1cccc(NS(C)(=O)=O)c1)C(F)(F)F` (centres unmarked) [Compound 250], the EC50 was over 100 µM. As for `CCOC(=O)c1c(NC(=O)COC(=O)c2cccc(NS(C)(=O)=O)c2)sc(-c2ccccc2)c1C(=O)OCC` [Compound 251], the figure is over 100 µM; as for `CCOC(=O)c1cc(-c2ccccc2)sc1NC(=O)c1cccc(-c2cccc(NS(C)(=O)=O)c2)c1` [Compound 252], over 100 µM. As for `CCOC(=O)c1cnc(NC(=O)COC(=O)c2cccc(NS(C)(=O)=O)c2)c(-c2ccccc2)c1` [Compound 254], the figure is over 100 µM. The figure for `CCOC(=O)c1cc(-c2ccccc2)sc1NC(=O)c1nc(-c2cccc(NS(C)(=O)=O)c2)no1` [Compound 255] is over 100 µM; for `CCOC(=O)c1cc(-c2ccccc2)sc1NC(=O)COC(=O)c1cccc(C(=O)NS(C)(=O)=O)c1` [Compound 256] it is over 100 µM. For `CCOC(=O)c1cc(-c2ccccc2)sc1NC(=O)COC(=O)c1cccc(NS(=O)(=O)C(F)(F)F)c1` [Compound 257], the concentration for a half-maximal effect (EC50) is over 100 µM. For `COC(=O)c1nc(-c2ccccc2)cnc1NC(=O)COC(=O)c1cccc(NS(C)(=O)=O)c1` [Compound 258], the EC50 is over 100 µM. Regarding `CS(=O)(=O)Nc1cccc(C(=O)OCC(=O)Nc2ncc(-c3ccccc3)cc2CO)c1` [Compound 259], the EC50 is over 100 µM. As for `CCOC(=O)c1cc(-c2ccccc2)cnc1NC(=O)COC(=O)c1cccc(NS(C)(=O)=O)c1` [Compound 260], the figure is over 100 µM. The molecule `CCOC(=O)c1cc(-c2ccccc2)sc1NC(=O)c1cc(-c2cccc(NS(C)(=O)=O)c2)ncn1` [Compound 261] yielded a half-maximal effective concentration (EC50) of over 100 µM.

For the molecule `CCOC(=O)c1cc(-c2ccccc2)sc1NC(=O)NNC(=O)c1cccc(NS(C)(=O)=O)c1` [Compound 262], the EC50 is over 100 µM. For the molecule `CCOC(=O)c1cc(NC(=O)c2ccccc2)sc1NC(=O)COC(=O)c1cccc(NS(C)(=O)=O)c1` [Compound 263], the 50% effective concentration (EC50) was over 100 µM.

For the molecule `CCOC(=O)c1cc(-c2ccccc2)sc1NC(=O)c1cncc(-c2cccc(NS(C)(=O)=O)c2)n1` [Compound 264], the half-maximal effective concentration (EC50) was over 100 µM. `CS(=O)(=O)Nc1cccc(C(=O)OCC(=O)Nc2cc(-c3ccccc3)[nH]n2)c1` [Compound 265] had a 50% effective concentration (EC50) of over 100 µM.

On to `CCOC(=O)c1cc(-c2ccc(C(=O)Nc3cccc(NS(C)(=O)=O)c3)cc2)sc1NC(C)=O` [Compound 266], for which the EC50 is over 100 µM. In turn, `CCOC(=O)c1cc(-c2ccccc2)sc1NC(=O)Oc1ccc(NS(C)(=O)=O)cc1` [Compound 267] registered an EC50 of over 100 µM.

`CCOC(=O)c1cc(-c2ccccc2)sc1NC(=O)c1ccc(-c2cccc(NS(C)(=O)=O)c2)o1` [Compound 268]: the EC50 is over 100 µM.

The molecule `CS(=O)(=O)Nc1cccc(NC(=O)c2cc(-c3ccccc3)sc2N)c1` [Compound 269] yielded a concentration giving a half-maximal response (EC50) of over 100 µM. On to `CS(=O)(=O)Nc1cccc(C(=O)OCCNC(=O)c2csc(-c3ccccc3)c2)c1` [Compound 271], for which the concentration giving a half-maximal response (EC50) is over 100 µM. The figure for `CCOC(=O)c1cc(-c2ccccc2)sc1NC(=O)c1nncn1-c1cccc(NS(C)(=O)=O)c1` [Compound 272] is over 100 µM; for `CCOC(=O)c1cc(-c2ccccc2)sc1NC(=O)c1nn(-c2cccc(NS(C)(=O)=O)c2)c(=O)cc1C` [Compound 273] it is over 100 µM; for `CCOC(=O)c1cc(-c2ccccc2)sc1NC(=O)NS(=O)(=O)c1cccc(NS(C)(=O)=O)c1` [Compound 275] it is over 100 µM. The figure for `CCOC(=O)c1cc(-c2ccccc2)sc1NC(=O)CCOc1cccc(NS(C)(=O)=O)c1` [Compound 276] is over 100 µM. In the case of `CCOC(=O)c1ccncc1NC(=O)COC(=O)c1cccc(NS(C)(=O)=O)c1` [Compound 277], the EC50 is over 100 µM. Molecule `CCOC(=O)c1cc(C2=CCN(C)CC2)sc1NC(=O)COC(=O)c1cccc(NS(C)(=O)=O)c1` [Compound 278] returned an EC50 of over 100 µM. As for `CCOC(=O)c1cc(-c2ccccc2)sc1N1CCN(C(=O)c2cccc(NS(C)(=O)=O)c2)CC1` [Compound 279], the figure is over 100 µM.

Consider `CCOC(=O)c1cc(-c2ccccc2)sc1NC(=O)CN1CCN(c2cccc(NS(C)(=O)=O)c2)CC1` [Compound 280], for which the EC50 was over 100 µM. As for `CS(=O)(=O)Nc1cccc(C(=O)NNC(=O)c2csc(-c3ccccc3)c2)c1` [Compound 281], the figure is over 100 µM.

`CCOC(=O)c1cc(-c2ccccc2)sc1NC(=O)CONC(=O)c1cccc(NS(C)(=O)=O)c1` [Compound 282]: the half-maximal effective concentration (EC50) was over 100 µM. The figure for `CCOC(=O)c1cc(-c2ccccc2)sc1NC(=O)CO/N=C/c1cccc(NS(C)(=O)=O)c1` [Compound 283] is over 100 µM; for `C=CC(=O)Nc1cccc(C(=O)OCC(=O)Nc2sc(-c3ccccc3)cc2C(=O)OCC)c1` [Compound 284] it is over 100 µM.

As for `CCOC(=O)c1cc(-c2ccccc2)sc1NC(=O)C1CCC(NC(=O)c2cccc(NS(C)(=O)=O)c2)CC1` (centres unmarked) [Compound 285], the EC50 was over 100 µM. Consider `CS(=O)(=O)Nc1cccc(-c2nc3sc(-c4ccccc4)cc3c(=O)[nH]2)c1` [Compound 286], for which the EC50 was over 100 µM. The molecule `CCOC(=O)c1c(NC(=O)COC(=O)c2cccc(NS(C)(=O)=O)c2)sc(N2CCOCC2)c1C` [Compound 287] came in with an EC50 of over 100 µM. The figure for `CCOC(=O)c1cc(-c2ccccc2)sc1NC(=O)Cn1nc(-c2cccc(NS(C)(=O)=O)c2)oc1=O` [Compound 288] is over 100 µM.

In the case of `CS(=O)(=O)Nc1cccc(C(=O)OCCNC(=O)c2cc(-c3ccccc3)sc2N)c1` [Compound 289], the concentration for a half-maximal effect (EC50) was over 100 µM. As for `CCOC(=O)c1cc(-c2ccccc2)sc1NC(=O)OCc1nnc(-c2cccc(NS(C)(=O)=O)c2)o1` [Compound 290], the figure is over 100 µM; as for `CCOC(=O)c1cc(-c2ccccc2)sc1NC(=O)CN1C(=O)COc2ccc(NS(C)(=O)=O)cc21` [Compound 291], over 100 µM; as for `CCOC(=O)c1cc(C2CCNCC2)sc1NC(=O)COC(=O)c1cccc(NS(C)(=O)=O)c1` [Compound 295], over 100 µM. In the case of `CCOC(=O)c1cc(-c2ccccc2)sc1NC(=O)COC(=O)c1cccc(NS(=O)(=O)c2ccn(C)n2)c1` [Compound 296], the EC50 is at most 25 µM. As for `CCOC(=O)c1cc(-c2ccccc2)sc1NC(=O)CS(=O)(=O)c1cccc(NS(C)(=O)=O)c1` [Compound 297], the figure is over 100 µM; as for `CCOC(=O)c1cnc(NC(=O)COC(=O)c2cccc(NS(C)(=O)=O)c2)nc1-c1ccccc1` [Compound 298], over 100 µM. The figure for `CCOC(=O)c1cc(-c2ccccc2)sc1NC(=O)COC(=O)c1cccc(B(O)O)c1` [Compound 299] is over 100 µM; for `CCOC(=O)c1cc(-c2ccccc2)sc1NC(=O)COc1cc(C(F)(F)F)nc(NS(C)(=O)=O)n1` [Compound 300] it is over 100 µM; for `CCOC(=O)c1cc(-c2ccccc2)oc1NC(=O)COC(=O)c1cccc(NS(C)(=O)=O)c1` [Compound 301] it is 50 to 100 µM. As for `CCOC(=O)c1cc(-c2ccccc2)sc1NC(=O)CCC(=O)c1cccc(NS(C)(=O)=O)c1` [Compound 303], the figure is 50 to 100 µM; as for `CCOC(=O)c1cc(-c2ccc3c(cnn3C)c2)sc1NC(=O)COC(=O)c1cccc(NS(C)(=O)=O)c1` [Compound 305], 50 to 100 µM; as for `COC(=O)c1sccc1NC(=O)COC(=O)c1cccc(NS(C)(=O)=O)c1` [Compound 306], over 100 µM. For the molecule `CCOC(=O)c1cc(-c2ccccc2)sc1S(=O)(=O)N1CCN(S(C)(=O)=O)CC1` [Compound 307], the EC50 was over 100 µM. In turn, `CCOC(=O)c1cc(-c2ccccc2)sc1S(=O)(=O)N1CCN(C(=O)c2cccc(NS(C)(=O)=O)c2)CC1` [Compound 309] gave an EC50 of 50 to 100 µM.

For the molecule `COC(=O)c1sc(-c2ccccc2)cc1NC(=O)COC(=O)c1cccc(NS(C)(=O)=O)c1` [Compound 311], the EC50 was at most 25 µM.

Consider `CCOC(=O)c1cc(-c2ccccc2)sc1NC(=O)CC(=O)Nc1cccc(NS(C)(=O)=O)c1` [Compound 312], for which the concentration giving a half-maximal response (EC50) lay within 50 to 100 µM.

Values taken from patent publication US20260200890A1, “ADAR1 INHIBITORS AND METHODS OF USING THE SAME” (AVAMMUNE THERAPEUTICS INC., priority 2022, published 2026).
